Values quoted from earlier work in patent US20230022060A1, “TURKESTERONE HYDROXYPROPYL B-CYCLIC DEXTRIN COMPLEX AND METHOD OF MANUFACTURING THEREOF” (Gorilla Mind, LLC, priority 2021, published 2023).

Tests used:
[1] = 100 mL water at 25° C.
[2] = tested on: Staphylococcus aureus, Bacillus subtilis and Escherichia coli; details: three bacteria

SMILES	amount that can be dissolved in water [1]	difference of antimicrobial activity between chlorogenic acid and its complex [2]
OC[C@H]1O[C@@H]2O[C@H]3[C@H](O)[C@@H](O)[C@@H](O[C@H]4[C@H](O)[C@@H](O)[C@@H](O[C@H]5[C@H](O)[C@@H](O)[C@@H](O[C@H]6[C@H](O)[C@@H](O)[C@@H](O[C@H]7[C@H](O)[C@@H](O)[C@@H](O[C@H]1[C@H](O)[C@H]2O)O[C@@H]7CO)O[C@@H]6CO)O[C@@H]5CO)O[C@@H]4CO)O[C@@H]3CO [α-cyclodextrin]	About 14 g in 100 mL water	–
O=C(/C=C/c1ccc(O)c(O)c1)O[C@@H]1C[C@](O)(C(=O)O)C[C@@H](O)[C@H]1O [chlorogenic acid]	–	No significant difference
